# Data: patent publication US20060069132A1, “Azolecarboxamide herbicides” (priority 2004, published 2006)
# Tests used:
# [1] = system: small flower umbrella sedge; assay: Test B flooded paddy test; assay type: in vivo, Cyperus difformis; details: 1000 g ai/ha, visual rating, scale 0 to 100 (0 no effect, 100 complete control), 13 to 15 days
# How it was run: (§1)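 Scale 0–100: zero equals no visible effect, 100 complete control, judged by eye relative to controls. Timing: 13 to 15 days in greenhouse post-treatment. Growth stage at spraying: two leaves (paddy) or one to four leaves, 2–18 cm (postemergence).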
# corn = assay: Test B pre-/postemergence herbicide test; assay type: in vivo, Zea mays; details: for Plant response rating, Corn: preemergence; for Corn plant response rating: postemergence, visual rating, scale 0 (no effect) to 100 (complete control)
# How it was run: (§2)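 Formulation: non-phytotoxic solvent mix with surfactant. Timing: preemergence on seed and postemergence on 2–18 cm plants, applied concurrently. Readout after 13–15 d greenhouse: visual 0–100 control rating against controls.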
# barnyardgrass [2] = assay: Test B pre-/postemergence herbicide test; assay type: in vivo, Echinochloa crus-galli; details: for Plant response rating, Barnyardgrass: preemergence; for Barnyardgrass plant response rating: postemergence, visual rating, scale 0 (no effect) to 100 (complete control)
# How it was run: as §2
# rice [3] = assay: Test B flooded paddy test; assay type: in vivo, Oryza sativa; details: 1000 g ai/ha, visual rating, scale 0 to 100 (0 no effect, 100 complete control), 13 to 15 days
# How it was run: as §1
# morningglory = assay: Test B pre-/postemergence herbicide test; assay type: in vivo, Ipomoea coccinea; details: for Plant response rating, Morningglory: preemergence; for Morningglory plant response rating: postemergence, visual rating, scale 0 (no effect) to 100 (complete control)
# How it was run: as §2
# Surinam grass = assay: Test B pre-/postemergence herbicide test; assay type: in vivo, Urochloa decumbens; details: for Plant response rating, Surinam Grass: preemergence; for Surinam Grass plant response rating: postemergence, visual rating, scale 0 (no effect) to 100 (complete control)
# How it was run: as §2
# ducksalad [4] = assay: Test B flooded paddy test; assay type: in vivo, Heteranthera limosa; details: 1000 g ai/ha, visual rating, scale 0 to 100 (0 no effect, 100 complete control), 13 to 15 days
# How it was run: as §1
# rice [5] = assay: Test B pre-/postemergence herbicide test; assay type: in vivo, Oryza sativa; details: preemergence
# How it was run: as §2
# wheat = assay: Test B postemergence herbicide test; assay type: in vivo, Triticum aestivum; parameters: key to Wheat plant response rating: 0 = no effect, 100 = complete control; details: postemergence, 500 g ai/ha; visual rating, scale 0 (no effect) to 100 (complete control)
# How it was run: (§3)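 Greenhouse test; postemergence application to plants at 1–4 leaves (2–18 cm); paddy species at 2 leaves; evaluated visually vs controls at 13–15 days; scale 0–100 (100 = complete control).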
# wild oat = assay: Test B postemergence herbicide test; assay type: in vivo, Avena fatua; details: postemergence, visual rating, scale 0 (no effect) to 100 (complete control)
# How it was run: as §3
# velvetleaf = assay: Test B pre-/postemergence herbicide test; assay type: in vivo, Abutilon theophrasti; details: for Plant response rating, Velvetleaf: preemergence; for Velvetleaf plant response rating: postemergence, visual rating, scale 0 (no effect) to 100 (complete control)
# How it was run: as §2
# barnyardgrass [6] = assay: Test B flooded paddy test; assay type: in vivo, Echinochloa crus-galli; details: 1000 g ai/ha, visual rating, scale 0 to 100 (0 no effect, 100 complete control), 13 to 15 days
# How it was run: as §1
# blackgrass = assay: Test B postemergence herbicide test; assay type: in vivo, Alopecurus myosuroides; details: postemergence, visual rating, scale 0 (no effect) to 100 (complete control)
# How it was run: as §1
# pigweed = assay: Test B pre-/postemergence herbicide test; assay type: in vivo, Amaranthus retroflexus; details: for Plant response rating, Pigweed: preemergence; for Pigweed plant response rating: postemergence, visual rating, scale 0 (no effect) to 100 (complete control)
# How it was run: as §2
# lambsquarters = assay: Test B pre-/postemergence herbicide test; assay type: in vivo, Chenopodium album; details: for Plant response rating, Lambsquarters: preemergence; for Lambsquarters plant response rating: postemergence, visual rating, scale 0 (no effect) to 100 (complete control)
# How it was run: as §2
# barnyardgrass [7] = assay: Test C flooded paddy test; assay type: in vivo, Echinochloa crus-galli
# How it was run: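 Plants were grown to the 1- to 4-leaf stage (2–18 cm) and then treated postemergence, or grown to the 2-leaf stage for the flooded paddy test. They were held in a greenhouse for 12 to 14 days and then scored by eye against controls, where 0 is no effect and 100 is complete control.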
# ducksalad [8] = assay: Test C flooded paddy test; assay type: in vivo, Heteranthera limosa
# rice [9] = assay: Test C flooded paddy test; assay type: in vivo, Oryza sativa
# How it was run: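 Injury scored visually against controls on a 0 (no effect) to 100 (complete control) scale, 12 to 14 days after treatment in greenhouse. Flooded paddy plants treated at 2-leaf stage; postemergence plants at 1- to 4-leaf stage, 2 to 18 cm tall.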
# [10] = system: smallflower umbrella sedge; assay: Test C flooded paddy test; assay type: in vivo, Cyperus difformis
# large crabgrass = assay: Test B pre-/postemergence herbicide test; assay type: in vivo, Digitaria sanguinalis; details: for Plant response rating, Crabgrass, Large: preemergence; for Crabgrass, Large plant response rating: postemergence, visual rating, scale 0 (no effect) to 100 (complete control)
# How it was run: as §2
# cocklebur = assay: Test B pre-/postemergence herbicide test; assay type: in vivo, Xanthium strumarium; details: for Plant response rating, Cocklebur: preemergence; for Cocklebur plant response rating: postemergence, visual rating, scale 0 (no effect) to 100 (complete control)
# How it was run: as §2
# giant foxtail = assay: Test B pre-/postemergence herbicide test; assay type: in vivo, Setaria faberi; details: for Plant response rating, Foxtail, Giant: preemergence; for Foxtail, Giant plant response rating: postemergence, visual rating, scale 0 (no effect) to 100 (complete control)
# How it was run: as §2
# [11] = 500 g ai/ha, visual rating 0-100, 0 no effect, 100 complete control
# [12] = 125 g ai/ha, 0 to 100 scale, 0 is no effect, 100 is complete control
# [13] = 62 g ai/ha, scale 0 to 100 (0 no effect, 100 complete control)
# [14] = 250 g ai/ha, scale of 0 to 100, 0 is no effect, 100 is complete control
# [15] = 500 g ai/ha, visual rating after 12 to 14 days, scale 0 to 100 (0 no effect, 100 complete control)
# [16] = 125 g ai/ha, scale 0 to 100 (0 no effect, 100 complete control)
compound,measurement,setting,value
CCOC(=O)c1cc(N(C(C)=O)C(=O)c2cc(C(C)(C)C)nn2CC)ccc1C [Compound 141],"Sedge, Umbrella plant response rating",[1],90
same,"Plant response rating, Corn",corn; [11],0
same,Corn plant response rating,corn; 125 g ai/ha,0
same,Corn plant response rating,corn; 500 g ai/ha,10
same,"Plant response rating, Corn",corn; [12],0
same,"Plant response rating, Barnyardgrass",barnyardgrass [2]; [11],0
same,Barnyardgrass plant response rating,barnyardgrass [2]; 125 g ai/ha,0
same,Barnyardgrass plant response rating,barnyardgrass [2]; 500 g ai/ha,10
same,"Plant response rating, Barnyardgrass",barnyardgrass [2]; [12],0
same,Rice plant response rating,rice [3],0
same,"Plant response rating, Morningglory",morningglory; [11],30
same,Morningglory plant response rating,morningglory; 125 g ai/ha,20
same,Morningglory plant response rating,morningglory; 500 g ai/ha,30
same,"Plant response rating, Morningglory",morningglory; [12],20
same,"Plant response rating, Surinam Grass",Surinam grass; [11],10
same,Surinam Grass plant response rating,Surinam grass; 125 g ai/ha,10
same,Surinam Grass plant response rating,Surinam grass; 500 g ai/ha,20
same,"Plant response rating, Surinam Grass",Surinam grass; [12],0
same,Ducksalad plant response rating,ducksalad [4],80
same,"Plant response rating, Rice",rice [5]; [11],0
same,"Plant response rating, Rice",rice [5]; [12],0
same,Wheat plant response rating,wheat,20
same,"Oat, Wild plant response rating",wild oat; 125 g ai/ha,10
same,"Oat, Wild plant response rating",wild oat; 500 g ai/ha,20
same,"Plant response rating, Velvetleaf",velvetleaf; [11],20
same,Velvetleaf plant response rating,velvetleaf; 125 g ai/ha,20
same,Velvetleaf plant response rating,velvetleaf; 500 g ai/ha,80
same,"Plant response rating, Velvetleaf",velvetleaf; [12],0
same,Barnyardgrass plant response rating,barnyardgrass [6],10
same,Blackgrass plant response rating,blackgrass; 125 g ai/ha,20
same,Blackgrass plant response rating,blackgrass; 500 g ai/ha,20
same,"Plant response rating, Pigweed",pigweed; [11],30
same,Pigweed plant response rating,pigweed; 125 g ai/ha,30
same,Pigweed plant response rating,pigweed; 500 g ai/ha,80
same,"Plant response rating, Pigweed",pigweed; [12],0
same,"Plant response rating, Lambsquarters",lambsquarters; [11],0
same,Lambsquarters plant response rating,lambsquarters; 125 g ai/ha,60
same,Lambsquarters plant response rating,lambsquarters; 500 g ai/ha,90
same,"Plant response rating, Lambsquarters",lambsquarters; [12],0
same,Barnyardgrass plant response rating,barnyardgrass [7]; [13],0
same,Barnyardgrass plant response rating,"barnyardgrass [7]; 125 g ai/ha, scale of 0 to 100, 0 is no effect, 100 is complete control",0
same,Barnyardgrass plant response rating,barnyardgrass [7]; [14],0
same,"Plant response rating, Barnyardgrass",barnyardgrass [7]; [15],10
same,Ducksalad plant response rating,ducksalad [8]; [13],0
same,Ducksalad plant response rating,ducksalad [8]; [16],0
same,Ducksalad plant response rating,ducksalad [8]; [14],0
same,"Plant response rating, Ducksalad",ducksalad [8]; [15],0
same,Rice plant response rating,rice [9]; [13],0
same,Rice plant response rating,rice [9]; [16],0
same,Rice plant response rating,rice [9]; [14],0
same,"Plant response rating, Rice",rice [9]; [15],0
same,"Sedge, Umbrella plant response rating",[10]; [13],0
same,"Sedge, Umbrella plant response rating",[10]; [16],0
same,"Sedge, Umbrella plant response rating",[10]; [14],30
same,"Plant response rating, Sedge, Umbrella",[10]; [15],45
same,"Plant response rating, Crabgrass, Large",large crabgrass; [11],20
same,"Crabgrass, Large plant response rating",large crabgrass; 125 g ai/ha,10
same,"Crabgrass, Large plant response rating",large crabgrass; 500 g ai/ha,30
same,"Plant response rating, Crabgrass, Large",large crabgrass; [12],10
same,"Plant response rating, Cocklebur",cocklebur; [11],10
same,Cocklebur plant response rating,cocklebur; 125 g ai/ha,0
same,Cocklebur plant response rating,cocklebur; 500 g ai/ha,20
same,"Plant response rating, Cocklebur",cocklebur; [12],0
same,"Plant response rating, Foxtail, Giant",giant foxtail; [11],20
same,"Foxtail, Giant plant response rating",giant foxtail; 125 g ai/ha,20
same,"Foxtail, Giant plant response rating",giant foxtail; 500 g ai/ha,20
same,"Plant response rating, Foxtail, Giant",giant foxtail; [12],10
